From ChEMBL document CHEMBL5729355, “N/O-linked Degrons and Degronimers for protein degradation” (2022)

Molecular target: Protein cereblon/DNA damage-binding protein 1 (Homo sapiens, UniProt Q96SW2)
Assay: Fluorescence Polarization (FP) Assay for Screening Compound Ligand Binders of CRBN-DDM: Measuring compound ligand binding to CRBN-DDB1 was carried out using an established sensitive and quantitative in vitro fluorescence polarization (FP) based binding assay. (See, I. J. Enyedy et al, J. Med. Chem., 44: 3134324, 2001). Compounds were dispensed from serially diluted DMSO stock into black 384-well compatible fluorescence polarization plates using an Echo acoustic dispenser. Compound binding to CRBN-DDB1 was measured by displacement of either a (−)-Thalidomide-Alexa Fluor® or Pornalidomide-fluorescein conjugated probe dye. A 20 μL mixture containing 400 nM CRBN-DDB1 and 5 nM probe dye in 50 mM Hepes, pH 7.4, 200 mM NaCl, 1% DMSO and 0.05% pluronic acid-127 acid was added to wells containing compound and incubated at room temperature for 60 min. Matching control wells excluding CRBN-DDB1 were used to correct for background fluorescence. Plates were read on an Envision plate reader with appropriate FP filter sets. […]
Format: protein assay

Protein cereblon/DNA damage-binding protein 1, sequence (Q96SW2 whole entry): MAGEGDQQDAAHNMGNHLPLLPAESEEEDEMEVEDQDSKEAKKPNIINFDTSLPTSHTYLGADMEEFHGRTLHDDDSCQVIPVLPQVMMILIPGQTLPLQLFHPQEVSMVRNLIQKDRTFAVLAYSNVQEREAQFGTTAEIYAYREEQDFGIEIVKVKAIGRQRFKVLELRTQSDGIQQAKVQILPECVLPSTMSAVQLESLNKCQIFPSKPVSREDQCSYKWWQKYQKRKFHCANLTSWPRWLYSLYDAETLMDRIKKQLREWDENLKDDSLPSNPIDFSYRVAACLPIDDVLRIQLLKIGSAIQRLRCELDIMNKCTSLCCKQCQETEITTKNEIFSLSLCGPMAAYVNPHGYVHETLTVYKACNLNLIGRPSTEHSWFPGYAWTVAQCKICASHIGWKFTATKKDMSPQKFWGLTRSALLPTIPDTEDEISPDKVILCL
Protein cereblon/DNA damage-binding protein 1, sequence (Q16531 whole entry, further chain): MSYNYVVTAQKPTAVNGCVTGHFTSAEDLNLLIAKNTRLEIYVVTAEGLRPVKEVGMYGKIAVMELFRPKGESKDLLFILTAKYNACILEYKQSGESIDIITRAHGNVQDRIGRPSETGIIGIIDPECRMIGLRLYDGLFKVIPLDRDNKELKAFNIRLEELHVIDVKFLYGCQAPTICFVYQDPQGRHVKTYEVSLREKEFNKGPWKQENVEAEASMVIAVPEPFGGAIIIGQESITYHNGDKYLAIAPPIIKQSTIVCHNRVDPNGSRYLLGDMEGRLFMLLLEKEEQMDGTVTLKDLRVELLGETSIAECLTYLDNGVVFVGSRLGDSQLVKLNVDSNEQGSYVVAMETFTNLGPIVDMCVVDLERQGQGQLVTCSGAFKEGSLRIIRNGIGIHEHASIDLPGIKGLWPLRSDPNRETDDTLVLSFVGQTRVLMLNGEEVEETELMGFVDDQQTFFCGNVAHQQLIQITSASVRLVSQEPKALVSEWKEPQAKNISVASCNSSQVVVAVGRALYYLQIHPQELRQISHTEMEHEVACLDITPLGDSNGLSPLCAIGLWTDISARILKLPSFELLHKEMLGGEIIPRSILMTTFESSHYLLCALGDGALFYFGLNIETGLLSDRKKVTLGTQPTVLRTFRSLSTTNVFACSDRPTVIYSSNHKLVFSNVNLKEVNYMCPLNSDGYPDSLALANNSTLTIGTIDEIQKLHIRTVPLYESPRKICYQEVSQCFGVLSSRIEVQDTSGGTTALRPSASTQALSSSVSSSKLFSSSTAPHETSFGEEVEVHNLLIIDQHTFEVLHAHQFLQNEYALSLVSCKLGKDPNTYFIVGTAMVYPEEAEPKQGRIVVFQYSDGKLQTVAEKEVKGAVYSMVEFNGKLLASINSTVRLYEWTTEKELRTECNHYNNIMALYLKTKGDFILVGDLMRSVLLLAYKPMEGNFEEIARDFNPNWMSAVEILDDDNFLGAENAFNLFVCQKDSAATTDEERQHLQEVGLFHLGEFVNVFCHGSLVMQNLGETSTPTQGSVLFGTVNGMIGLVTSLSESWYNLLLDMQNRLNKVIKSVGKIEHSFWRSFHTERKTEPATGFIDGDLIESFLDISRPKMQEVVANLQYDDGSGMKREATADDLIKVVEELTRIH

## Cn1c(NC2CCC(=O)NC2=O)nc2ccccc21 (stereo unspecified)
  Kd: > 100 µM
